Experimental data reported in ChEMBL document CHEMBL4673315, “Structure-activity relationship (SAR) studies on the mutagenic properties of 2,7-diaminofluorene and 2,7-diaminocarbazole derivatives” (Bioorg Med Chem Lett, 2021).

Legend:
[1] = Mutagenicity in Salmonella typhimurium TA98 by AMES test; format: toxicity; settings: salmonella enterica subsp. enterica serovar typhimurium
[2] = Mutagenicity in Salmonella typhimurium TA100 in presence of liver S9 fraction by AMES test; format: toxicity, subcellular; settings: salmonella enterica subsp. enterica serovar typhimurium
[3] = Mutagenicity in Salmonella typhimurium TA98 in presence of liver S9 fraction by AMES test; format: toxicity, subcellular; settings: salmonella enterica subsp. enterica serovar typhimurium
[4] = Mutagenicity in Salmonella typhimurium TA100 by AMES test; format: toxicity; settings: salmonella enterica subsp. enterica serovar typhimurium
Hepatitis C virus [5] = experiment: Antiviral activity against Hepatitis C virus subtype 3a infected in Huh 7.5.1 cells assessed as reduction in viral replication incubated for 3 days by S52-Feo luciferase reporter gene assay; format: functional, organism-based, Hepacivirus hominis; settings: Huh-7.5.1, 72 h
Hepatitis C virus [6] = experiment: Antiviral activity against Hepatitis C virus subtype 1b infected in Huh 7.5.1 cells assessed as reduction in viral replication incubated for 3 days by NK5.1 luciferase reporter gene assay; format: functional, organism-based, Hepacivirus hominis; settings: Huh-7.5.1, 72 h
Hepatitis C virus [7] = experiment: Antiviral activity against Hepatitis C virus subtype 2a infected in Huh 7.5.1 cells assessed as reduction in viral replication incubated for 3 days by JC1 Gaussia luciferase reporter gene assay; format: functional, organism-based, Hepacivirus hominis; settings: Huh-7.5.1, 72 h
Hepatitis C virus [8] = experiment: Antiviral activity against Hepatitis C virus subtype 1b harboring NS5A L31V/Y93H double mutant infected in Huh 7.5.1 cells assessed as reduction in viral replication incubated for 3 days by NK5.1 luciferase reporter gene assay; format: functional, organism-based, Hepacivirus hominis; settings: Huh-7.5.1, 72 h
Hepatitis C virus [9] = experiment: Antiviral activity against Hepatitis C virus subtype 1b harboring NS5A Y93H mutant infected in Huh 7.5.1 cells assessed as reduction in viral replication incubated for 3 days by NK5.1 luciferase reporter gene assay; format: functional, organism-based, Hepacivirus hominis; settings: Huh-7.5.1, 72 h
Hepatitis C virus [10] = experiment: Antiviral activity against Hepatitis C virus subtype 1b harboring NS5A L31V mutant infected in Huh 7.5.1 cells assessed as reduction in viral replication incubated for 3 days by NK5.1 luciferase reporter gene assay; format: functional, organism-based, Hepacivirus hominis; settings: Huh-7.5.1, 72 h

Row | SMILES | Activity [1] | Activity [2] | Activity [3] | Activity [4] | EC50 (Hepatitis C virus [5]) [nM] | EC50 (Hepatitis C virus [6]) [nM] | EC50 (Hepatitis C virus [7]) [nM] | EC50 (Hepatitis C virus [8]) [nM] | EC50 (Hepatitis C virus [9]) [nM] | EC50 (Hepatitis C virus [10]) [nM]
1 | Nc1ccc2c(c1)C(c1ccc3ccccc3c1)c1cc(N)ccc1-2 | Non-Toxic | Non-Toxic | Toxic | Non-Toxic | – | – | – | – | – | –
2 | Nc1ccc2c(c1)C(=Cc1ccncc1)c1cc(N)ccc1-2 | Non-Toxic | Toxic | Toxic | Non-Toxic | – | – | – | – | – | –
3 | Nc1ccc2c(c1)C(CCCCC(F)(F)F)(CCCCC(F)(F)F)c1cc(N)ccc1-2 | Non-Toxic | Non-Toxic | Non-Toxic | Non-Toxic | – | – | – | – | – | –
4 | Nc1ccc2c3ccc(N)cc3n(C(C3CC3)C3CC3)c2c1 | Non-Toxic | Toxic | Toxic | Non-Toxic | – | – | – | – | – | –
5 | CCCC1(CCC)c2cc(N)ccc2-c2ccc(N)cc21 | Non-Toxic | Non-Toxic | Toxic | Non-Toxic | – | – | – | – | – | –
6 | Nc1ccc2c(c1)C(Cc1ccc(C(F)(F)F)cc1)c1cc(N)ccc1-2 | Toxic | Non-Toxic | Toxic | Non-Toxic | – | – | – | – | – | –
7 | Nc1ccc2c(c1)C(c1ccc(Br)cc1)c1cc(N)ccc1-2 | Non-Toxic | Non-Toxic | Toxic | Non-Toxic | – | – | – | – | – | –
8 | COCCOc1cccc(Cn2c3cc(N)ccc3c3ccc(N)cc32)c1 | Non-Toxic | Non-Toxic | Toxic | Non-Toxic | – | – | – | – | – | –
9 | CC(c1ccccc1)n1c2cc(N)ccc2c2ccc(N)cc21 (stereo not given) | Non-Toxic | Toxic | Toxic | Non-Toxic | – | – | – | – | – | –
10 | CCCCCCCCCCCCn1c2cc(N)ccc2c2ccc(N)cc21 | Non-Toxic | Non-Toxic | Non-Toxic | Non-Toxic | – | – | – | – | – | –
11 | Nc1ccc2c(c1)C(CCCC(F)(F)F)(CCCC(F)(F)F)c1cc(N)ccc1-2 | Non-Toxic | Non-Toxic | Toxic | Non-Toxic | – | – | – | – | – | –
12 | CCCCn1c2cc(N)ccc2c2ccc(N)cc21 | Toxic | Toxic | Toxic | Toxic | – | – | – | – | – | –
13 | CC(C)c1ccc(C2c3cc(N)ccc3-c3ccc(N)cc32)cc1 | Non-Toxic | Non-Toxic | Toxic | Non-Toxic | – | – | – | – | – | –
14 | CCCCC(c1ccccc1)n1c2cc(N)ccc2c2ccc(N)cc21 (stereo not given) | Non-Toxic | Non-Toxic | Toxic | Non-Toxic | – | – | – | – | – | –
15 | Nc1ccc2c3ccc(N)cc3n(CCCCCCCCCCN3CCOCC3)c2c1 | Non-Toxic | Non-Toxic | Non-Toxic | Non-Toxic | – | – | – | – | – | –
16 | CCCCCCCCCC(c1ccccc1)n1c2cc(N)ccc2c2ccc(N)cc21 (stereo not given) | Non-Toxic | Non-Toxic | Non-Toxic | Non-Toxic | – | – | – | – | – | –
17 | CC(C)=CC1c2cc(N)ccc2-c2ccc(N)cc21 | Toxic | Toxic | Toxic | Toxic | – | – | – | – | – | –
18 | CCCCOc1ccc(Cn2c3cc(N)ccc3c3ccc(N)cc32)cc1 | Non-Toxic | Non-Toxic | Toxic | Non-Toxic | – | – | – | – | – | –
19 | CCCCCCOc1ccc(Cn2c3cc(N)ccc3c3ccc(N)cc32)cc1 | Non-Toxic | Non-Toxic | Toxic | Non-Toxic | – | – | – | – | – | –
20 | Nc1ccc2c(c1)C(c1ccc(C(F)(F)F)cc1)c1cc(N)ccc1-2 | Non-Toxic | Non-Toxic | Toxic | Non-Toxic | – | – | – | – | – | –
21 | Nc1ccc2c(c1)C(=Cc1ccc(C(F)(F)F)cc1)c1cc(N)ccc1-2 | Toxic | Non-Toxic | Toxic | Non-Toxic | – | – | – | – | – | –
22 | Nc1ccc2c3ccc(N)cc3n(Cc3cccc(OC4CCCC4)c3)c2c1 | Non-Toxic | Non-Toxic | Toxic | Non-Toxic | – | – | – | – | – | –
23 | CC(C)(C)c1ccc(C2c3cc(N)ccc3-c3ccc(N)cc32)cc1 | Non-Toxic | Non-Toxic | Toxic | Non-Toxic | – | – | – | – | – | –
24 | CCCCC(CCCC)n1c2cc(N)ccc2c2ccc(N)cc21 | Non-Toxic | Non-Toxic | Non-Toxic | Non-Toxic | – | – | – | – | – | –
25 | CCCCCCCCCCn1c2cc(N)ccc2c2ccc(N)cc21 | Non-Toxic | Non-Toxic | Toxic | Non-Toxic | – | – | – | – | – | –
26 | Nc1ccc2c(c1)C(c1ccc(F)cc1)c1cc(N)ccc1-2 | Non-Toxic | Non-Toxic | Toxic | Non-Toxic | – | – | – | – | – | –
27 | CCCCC1(CCCC)c2cc(NC(=O)[C@@H]3C[C@@H](O)CN3C(=O)[C@H](NC(=O)OC)c3ccccc3)ccc2-c2ccc(NC(=O)[C@@H]3C[C@@H](O)CN3C(=O)[C@H](NC(=O)OC)c3ccccc3)cc21 | – | – | – | – | 0.016 | 0.002 | 1.2 | 41.4 | 0.88 | 0.003
